These molecules were tested against human PDE10A (Homo sapiens (Human), UniProt Q9Y233) (assay: human PDE10A full length Scintillation Proximity Assay (SPA)). Details: PDE10A full length enzyme, 50 nM cGMP / [3H]-cGMP substrate, 20 minutes at room temperature.
Format: biochemical
Protocol: The following test was carried out in order to determine the activity of the compounds of the present invention. PDE10 activity of the compounds of the present invention was determined using a Scintillation Proximity Assay (SPA)-based method similar to the one previously described (Fawcett, L. et al., Proc Natl Acad Sci USA (2000) 97(7):3702-3707).
The human PDE10A full length assay was performed in 96-well micro titer plates. The reaction mixture of 50 μl contained 20 mM HEPES pH=7.5/10 mM MgCl2/0.05 mg/ml BSA (Sigma cat. # A-7906), 50 nM cGMP (Sigma, cat. # G6129) and 50 nM [3H]-cGMP (GE Healthcare, cat. # TRK392 S.A. 13.2 Ci/mmol), 3.75 ng/well PDE10A enzyme (Enzo Life Science, Lausen, Switzerland cat # SE-534) with or without a specific test compound. A range of concentrations of the potential inhibitor was used to generate data for calculating the concentration of inhibitor resulting in 50% of the effect (e.g. IC50, the concentration of the competitor inhibiting PDE10A activity by 50%). Non-specific activity was tested without the enzyme. The reaction was initiated by the addition of the substrate solution (cGMP and [3H]-cGMP) and allowed to progress for 20 minutes at room temperature. The reaction was terminated by adding 25 μl of YSi-SPA scintillation beads (GE Healthcare, cat. # RPNQ0150) in 18 mM zinc sulphate solution (stop reagent). After 1 h under shaking, the plate was centrifuged one minute at 170 g to allow beads to settle. Afterwards, radioactive counts were measured on a Perkin Elmer Top-Count Scintillation plate reader.

human PDE10A, sequence (Q9Y233 other isoform, or with tags, fused parts or gaps): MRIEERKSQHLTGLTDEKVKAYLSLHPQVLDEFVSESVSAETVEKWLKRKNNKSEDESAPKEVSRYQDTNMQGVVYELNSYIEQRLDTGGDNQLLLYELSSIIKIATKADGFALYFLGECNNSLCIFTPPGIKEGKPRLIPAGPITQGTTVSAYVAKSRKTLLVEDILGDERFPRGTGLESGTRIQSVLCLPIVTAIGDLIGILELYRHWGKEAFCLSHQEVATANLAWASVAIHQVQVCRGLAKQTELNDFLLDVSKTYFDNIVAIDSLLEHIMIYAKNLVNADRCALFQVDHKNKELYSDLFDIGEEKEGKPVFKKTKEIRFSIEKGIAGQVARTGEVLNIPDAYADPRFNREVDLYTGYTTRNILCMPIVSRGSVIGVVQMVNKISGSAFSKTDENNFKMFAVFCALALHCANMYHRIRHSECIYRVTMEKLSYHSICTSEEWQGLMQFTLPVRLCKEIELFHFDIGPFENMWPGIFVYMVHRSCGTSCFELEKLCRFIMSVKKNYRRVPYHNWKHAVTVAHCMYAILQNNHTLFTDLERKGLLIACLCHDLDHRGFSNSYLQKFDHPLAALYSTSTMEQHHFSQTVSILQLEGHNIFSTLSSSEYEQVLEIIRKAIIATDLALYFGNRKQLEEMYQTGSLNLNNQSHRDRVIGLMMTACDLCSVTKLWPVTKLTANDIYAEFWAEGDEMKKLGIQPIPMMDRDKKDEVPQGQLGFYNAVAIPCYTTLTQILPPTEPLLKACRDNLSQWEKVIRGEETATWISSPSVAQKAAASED

Row | Compound | IC50
1 | Cc1ncc(C)n2nc(CCc3nc(N4CCC(C(F)F)C4)nn3C)nc12 (stereo not shown) [Example 129, 2-{2-[5-(3-Difluoromethyl-pyrrolidin-1-yl)-2-methyl-2H-[1,2,4]triazol-3-yl]-ethyl}-5,8-dimethyl-[1,2,4]triazolo[1,5-a]pyrazine] | 48.1 nM
2 | Cc1ncc(C)n2nc(CCc3nc(N4CC[C@@H](NC(=O)OC(C)(C)C)C4)nn3C)nc12 [Example 107, ((R)-1-{5-[2-(5,8-Dimethyl-[1,2,4]triazolo[1,5-a]pyrazin-2-yl)-ethyl]-1-methyl-1H-[1,2,4]triazol-3-yl}-pyrrolidin-3-yl)-carbamic acid tert-butyl ester] | 171 nM
3 | Cc1ncc(C)n2nc(CCc3nc(N4CCC[C@H]4C)nn3C)nc12 [Example 101, 5,8-Dimethyl-2-{2-[2-methyl-5-((R)-2-methyl-pyrrolidin-1-yl)-2H-[1,2,4]triazol-3-yl]-ethyl}-[1,2,4]triazolo[1,5-a]pyrazine] | 57.6 nM
4 | Cc1nc(C)n2nc(CCc3nc(N4CCCC4)nn3C)nc2c1Cl [Example 44, 8-Chloro-5,7-dimethyl-2-(2-(1-methyl-3-(pyrrolidin-1-yl)-1H-1,2,4-triazol-5-yl)ethyl)-[1,2,4]triazolo[1,5-c]pyrimidine] | 9.41 nM
5 | Cc1ncc(C)n2nc(CCc3nc(N4CCCC4)n(C4CC4)n3)nc12 [Example 123b, 2-[2-(1-Cyclopropyl-5-pyrrolidin-1-yl-1H-[1,2,4]triazol-3-yl)-ethyl]-5,8-dimethyl-[1,2,4]triazolo[1,5-a]pyrazine] | 8.2 nM
6 | CCc1cc(C(F)(F)F)c2nc(CCc3nc(N4CCCC4)nn3C)nn2c1C [Example 86, 6-Ethyl-5-methyl-2-[2-(2-methyl-5-pyrrolidin-1-yl-2H-[1,2,4]triazol-3-yl)-ethyl]-8-trifluoromethyl-[1,2,4]triazolo[1,5-a]pyridine] | 3.44 nM
7 | Cc1ccn2nc(CCc3nc(N4CCCC4)n(C)n3)nc2c1C [Example 32, 7,8-Dimethyl-2-(2-(1-methyl-5-(pyrrolidin-1-yl)-1H-1,2,4-triazol-3-yl)ethyl)-[1,2,4]triazolo[1,5-a]pyridine] | 7.23 nM
8 | Cc1nc2ccccc2nc1CCc1nc(N2CCCC2)nn1C [Example 16, 2-Methyl-3-[2-(2-methyl-5-pyrrolidin-1-yl-2H-[1,2,4]triazol-3-yl)-ethyl]-quinoxaline] | 61.4 nM
9 | Cc1ncc(C)n2nc(CCc3nc(N4CCCC4)nn3CC(F)F)nc12 [Example 110, 2-{2-[2-(2,2-Difluoro-ethyl)-5-pyrrolidin-1-yl-2H-[1,2,4]triazol-3-yl]-ethyl}-5,8-dimethyl-[1,2,4]triazolo[1,5-a]pyrazine] | 3.25 nM
10 | Cc1c(C#N)cc(C#N)c2nc(CCc3nc(N4CCCC4)nn3C)nn12 [Example 78, 5-Methyl-2-[2-(2-methyl-5-pyrrolidin-1-yl-2H-[1,2,4]triazol-3-yl)-ethyl]-[1,2,4]triazolo[1,5-c]pyridine-6,8-dicarbonitrile] | 30.6 nM
11 | Cc1cnc(C)n2nc(CCc3nc(N4CCC[C@H]4C)nn3C)nc12 [Example 113, 5,8-Dimethyl-2-{2-[2-methyl-5-((R)-2-methyl-pyrrolidin-1-yl)-2H-[1,2,4]triazol-3-yl]-ethyl}-[1,2,4]triazolo[1,5-c]pyrimidine] | 131 nM
12 | Cc1c(Cl)cc(C(F)(F)F)c2nc(CCc3nc(N4CC[C@@H](F)C4)nn3C)nn12 [Example 127, (R)-6-Chloro-2-(2-(3-(3-fluoropyrrolidin-1-yl)-1-methyl-1H-1,2,4-triazol-5-yl)ethyl)-5-methyl-8-(trifluoromethyl)-[1,2,4]triazolo[1,5-a]pyridine] | 2.71 nM
13 | Cc1cc(C)n2nc(/C=C/c3nc(N(C)C4CC4)nn3C)nc2n1 [Example 30, Cyclopropyl-{5-[2-(5,7-dimethyl-[1,2,4]triazolo[1,5-a]pyrimidin-2-yl)-vinyl]-1-methyl-1H-[1,2,4]triazol-3-yl}-methyl-amine] | 57.9 nM
14 | Cc1ccc(C)n2nc(CCc3nc(N4CCCC4)nn3C)nc12 [Example 37, 5,8-Dimethyl-2-(2-(1-methyl-3-(pyrrolidin-1-yl)-1H-1,2,4-triazol-5-yl)ethyl)-[1,2,4]triazolo[1,5-a]pyridine] | 4.21 nM
15 | Cc1cnc(C)n2nc(CCc3nc(N4CCCC4C)nn3C)nc12 (stereo not shown) [Example 111, 5,8-Dimethyl-2-{2-[2-methyl-5-(2-methyl-pyrrolidin-1-yl)-2H-[1,2,4]triazol-3-yl]-ethyl}-[1,2,4]triazolo[1,5-c]pyrimidine] | 18.4 nM
16 | COCCOc1cc(Cl)c(C)n2nc(CCc3nc(N4CCCC4)nn3C)nc12 [Example 119, 6-Chloro-8-(2-methoxyethoxy)-5-methyl-2-[2-(2-methyl-5-pyrrolidin-1-yl-1,2,4-triazol-3-yl)ethyl]-[1,2,4]triazolo[1,5-a]pyridine] | 0.23 nM

Row | Compound | IC50
17 | COc1ccc(Cn2nc(N3CCCC3)nc2CCc2nc3c(Cl)cc(Cl)c(C)n3n2)cc1 [Example 61] | 0.72 nM
18 | Cc1c(Cl)cc(Cl)c2nc(CCc3nc(N4CCCC4)nn3C)nn12 [Example 52, 6,8-Dichloro-5-methyl-2-[2-(2-methyl-5-pyrrolidin-1-yl-2H-[1,2,4]triazol-3-yl)-ethyl]-[1,2,4]triazolo[1,5-a]pyridine] | 0.63 nM
19 | Cc1ncc(C)n2nc(CCc3nc(N4CC[C@H](F)C4)nn3C)nc12 [Example 94, 2-{2-[5-((S)-3-Fluoro-pyrrolidin-1-yl)-2-methyl-2H-[1,2,4]triazol-3-yl]-ethyl}-5,8-dimethyl-[1,2,4]triazolo[1,5-a]pyrazin] | 122 nM
20 | Cc1cc(C)n2nc(CCc3nc(N4CCCC4)nn3C)nc2n1 [Example 24, 5,7-dimethyl-2-(2-(1-methyl-3-(pyrrolidin-1-yl)-1H-1,2,4-triazol-5-yl)ethyl)-[1,2,4]triazolo[1,5-a]pyrimidine] | 23.6 nM
21 | Cc1nc(C(F)(F)F)n2nc(CCc3nc(N4CCCC4)nn3C)nc2c1C [Example 103, 7,8-Dimethyl-2-(2-(1-methyl-3-(pyrrolidin-1-yl)-1H-1,2,4-triazol-5-yl)ethyl)-5-(trifluoromethyl)-[1,2,4]triazolo[1,5-c]pyrimidine] | 10.2 nM
22 | Clc1ccc2ncc(CCc3n[nH]c(N4CCCC4)n3)nc2c1 [Example 134, 7-chloro-2-(2-(5-(pyrrolidin-1-yl)-1H-1,2,4-triazol-3-yl)ethyl)quinoxaline] | 33 nM
23 | Cc1c(Cl)cc(Cl)c2nc(CCc3n[nH]c(N4CCCC4)n3)nn12 [Example 68, 6,8-Dichloro-5-methyl-2-[2-(5-pyrrolidin-1-yl-1H-[1,2,4]triazol-3-yl)-ethyl]-[1,2,4]triazolo[1,5-a]pyridine] | 0.22 nM
24 | COc1ccc(Cn2nc(CCc3nc4c(Cl)cc(Cl)c(C)n4n3)nc2N2CCCC2)cc1 [Example 62, 6,8-Dichloro-2-(2-(1-(4-methoxybenzyl)-5-(pyrrolidin-1-yl)-1H-1,2,4-triazol-3-yl)ethyl)-5-methyl-[1,2,4]triazolo[1,5-a]pyridine] | 3.23 nM
25 | Cn1nc(N2CCCC2)nc1CCc1nc2ccc3ccccc3n2n1 [Example 56, 2-(2-(1-Methyl-3-(pyrrolidin-1-yl)-1H-1,2,4-triazol-5-yl)ethyl)-[1,2,4]triazolo[1,5-a]quinoline] | 29.2 nM
26 | Cc1ccn2nc(CCc3nc(N4CCCC4)nn3C)nc2c1[N+](=O)[O-] [Example 55, 7-Methyl-2-(2-(1-methyl-3-(pyrrolidin-1-yl)-1H-1,2,4-triazol-5-yl)ethyl)-8-nitro-[1,2,4]triazolo[1,5-a]pyridine] | 94.7 nM
27 | Cc1c(Cl)cc(OC2CCOCC2)c2nc(CCc3nc(N4CCCC4)nn3C)nn12 [Example 120, 6-Chloro-5-methyl-2-(2-(1-methyl-3-(pyrrolidin-1-yl)-1H-1,2,4-triazol-5-yl)ethyl)-8-(tetrahydro-2H-pyran-4-yloxy)-[1,2,4]triazolo[1,5-a]pyridine] | 0.36 nM
28 | Cc1ncc(C)n2nc(CCc3nc(N4CC[C@H](C)C4)nn3C)nc12 [Example 115, 5,8-Dimethyl-2-{2-[2-methyl-5-((S)-3-methyl-pyrrolidin-1-yl)-2H-[1,2,4]triazol-3-yl]-ethyl}-[1,2,4]triazolo[1,5-a]pyrazine] | 5.46 nM
29 | Cc1c(Cl)cc(C(F)(F)F)c2nc(CCc3nc(N4CCCC4)nn3C3CC3)nn12 [Example 132, 6-Chloro-2-(2-(1-cyclopropyl-3-(pyrrolidin-1-yl)-1H-1,2,4-triazol-5-yl)ethyl)-5-methyl-8-(trifluoromethyl)-[1,2,4]triazolo[1,5-a]pyridine] | 0.72 nM
30 | Cc1c(Cl)ccc2nc(CCc3nc(N4CCCC4)nn3C)nn12 [Example 27, 6-Chloro-5-methyl-2-(2-(1-methyl-3-(pyrrolidin-1-yl)-1H-1,2,4-triazol-5-yl)ethyl)-[1,2,4]triazolo[1,5-a]pyridine] | 0.98 nM
31 | Cc1c(Cl)cc(C2CC2)c2nc(CCc3nc(N4CCCC4)nn3C)nn12 [Example 77, 6-Chloro-8-cyclopropyl-5-methyl-2-[2-(2-methyl-5-pyrrolidin-1-yl-2H-[1,2,4]triazol-3-yl)-ethyl]-[1,2,4]triazolo[1,5-a]pyridine] | 9.99 nM
